# Test results reported in patent publication US20260274810A1, “NOVEL MITOFUSIN INHIBITORS” (ALBERT EINSTEIN COLLEGE OF MEDICINE, priority 2023, published 2026).
# pIC50: −log10 of the molar value.
# What was measured:
# MOLM13 cells = test: Caspase 3/7 activation with AMG-176; type: cell-based; details: increasing concentrations of AMG-176 and MFI8
# Description: Caspase-3/7 activation assay. Cells (5×10^3 cells/well) were seeded in a 96-well white plate and treated with MASM7, MFI8. Caspase 3/7 activation was measured after 6 hr by addition of the Caspase-Glo 3/7 reagent according to the manufacturer's protocol (Promega). Luminescence was detected by a F200 PRO microplate reader (TECAN). Caspase assays were performed in at least triplicate and the data normalized to vehicle-treated control wells. Dilutions of MASM7 or MFI8 were performed using a TECAN D300e Digital Dispenser from 10 mM stocks.
# MEFs [1] = test: Metabolomics (TCA cycle, NAD/NADH); type: cell-based, mouse
# Description: Metabolomics. MEFs were treated with MASM7 and MFI8. Cells were harvested using a cell scraper and centrifuged at 1200 rpm in 4° C. for 3 min. Each cell pellet sample was suspended into 250 to 700 μL of 80% aqueous methanol in an Eppendorf tube. The samples were vortex mixed for 15 s and sonicated in an ice-water bath for 5 min, followed by centrifugal clarification at 15,000 rpm and 5° C. in an Eppendorf 5424R centrifuge. The clear supernatants were collected. A standard stock solution of TCA cycle carboxylic acids, NAD and NADH was prepared in 80% methanol as S1. This standard solution S1 was serially diluted 1 to 4 (v/v) with the same solvent to make standard solutions S2 to S10. 20 μL of each standard solution and an aliquot of the clear supernatant from each cell was mixed with 20 μL of an internal standard solution containing 9 ^13C- or deuterium labeled analogues of the TCA cycle carboxylic acids (except isocitric acid), 20 μL of 200 mM 3-NPH solution and 20 μL of 150 mM of EDC solution. The mixtures were allowed to react at 30° C. for 30 min. After reaction, 120 μL of water was added to each solution. 10 μL of the resultant solutions was injected into a C18 UPLC column to quantitate the TCA cycle carboxylic acids by UPLC-MRM/MS with (−) ion detection, according to the procedure we described in a publication.
# cells [2] = test: Cell viability assay (CellTiter-Glo); type: cell-based; details: 72 hours
# Description: Cell viability assay. Cells (5×10^3 cells/well) were seeded in a 96-well white plate and treated with serial dilutions of MASM7 or MFI8. Cell viability was assayed after 72 hrs by addition of CellTiter-Glo reagent according to the manufacturer's protocol (Promega). Luminescence was measured using a F200 PRO microplate reader (TECAN). Viability assays were performed in at least triplicate and the data normalized to vehicle-treated control wells. Dilutions of MASM7 or MFI8 were performed using a TECAN D300e Digital Dispenser from 10 mM stocks.
# MEFs [3] = test: DNA damage, γH2AX immunofluorescence; type: cell-based, mouse
# Description: Immunofluorescent analysis and microscopy. Cells were treated with MASM7, MFI8 and or Q-VD-OPh at ~70% confluence for 6 h. After treatments, cells were washed with PBS and fixed with 4% PFA for 15 min. Then cells were permeabilized with 0.1% Triton X-100 in PBS for 10 min. Cells were blocked with 5% BSA in PBS-T and incubated overnight with primary antibodies as indicated; γH2AX (Sigma; 05-636, 1:100 dilution). After incubation with primary antibodies, cells were washed with PBS and incubated with the appropriate mouse secondary antibody (ThermoFisher Scientific; A-11001) in the blocking solution. After PBS washes, coverslips were dipped in water and mounted on glass slides using Vectashield containing DAPI (Vector laboratories). Images were taken with Leica SP5 inverted confocal microscope. Data were analyzed with ImageJ.
# cells [4] = test: Cell death assay (Annexin V / PI); type: cell-based
# Description: Cell death assay. Cells (2×10^5 cells/well) were seeded in a 6-well plate and treated with the indicated drugs for 6 hours. Cells were dissociated using Accutase (Thermo Fisher; Cat. #00-4555-56) in order to avoid accidental exposure of phosphatidylserine on the outer plasma membrane. Cell death was evaluated with Dead Cell Apoptosis Kit with Annexin V Alexa Fluor™ 488 & Propidium Iodide (Thermo Fisher; Cat. #V13241) according to manufacturer's protocol. Data was acquired by BD LSRII flow cytometer system using BD FACSDiva software. Data was analyzed by FlowJo (BD).
# MEFs [5] = test: Mitochondrial respiration in cellulo (OCR); type: cell-based, mouse; details: WT MEFs; MASM7 1 μM or MFI8 20 μM, 6 hrs
# Description: Mitochondrial respiration in cellulo. Mitochondrial oxygen consumption rates (OCR) were assessed using a XF24 Analyzer (Seahorse Biosciences, Billerica MA, USA). In brief, 3×10^4 MEFs were cultured in a XF24 cell culture microplate containing DMEM supplemented with 10% fetal bovine serum. Cells were treated with MASM7 (1 μM) or MFI8 (20 μM) 6 hrs prior to OCR analysis. Mitochondrial respiration was assessed by the sequential addition of oligomycin (1 μM), carbonyl cyanide-4-(trifluoromethoxy)phenylhydrazone (FCCP, 2 μM) and rotenone (1 μM)-antimycin (1 μM) as previously reported. OCR was normalized to cell number or total protein content per well for each condition tested.
# MEFs [6] = test: Mitochondrial aspect ratio (Mito AR), live cell imaging
# Description: Live cell imaging. MEFs were seeded on chamber slides (MatTek Corporation: 35 mm dishes, No. 1.5, 14 mm glass diameter) at ~70% confluence. […] Images were taken with Leica SP5 inverted confocal microscope. Data were analyzed with Image J software. >200 mitochondria were measured per condition in mitochondrial aspect ratio.
# Measurement of mitochondrial aspect ratio (Mito AR). Images that depict stained mitochondria with mitotracker green were analyzed using FIJI We measured for each mitochondrion its length and width. Then, we divided the length by the width for each mitochondrion to get its mitochondrial aspect ratio. >200 mitochondria were measured per treatment.
# MEFs were seeded on chamber slides (MatTek Corporation: 35 mm dishes, No. 1.5, 14 mm glass diameter) at ~70% confluence. Cells were treated with compounds. Then, cells were stained with MitoTracker Green (200 nM, Invitrogen) for 20 min at 37° C. After treatments, media was replaced with FluoroBrite™ DMEM (Invitrogen) supplemented with 10% FBS, 100 U ml^−1 penicillin/streptomycin, 2 mM L-glutamine and compound prior image acquisition. Images were taken with Leica SP5 inverted confocal microscope. Data were analyzed with Image J software. >200 mitochondria were measured per condition in mitochondrial aspect ratio. Measurement of mitochondrial aspect ratio (Mito AR). Images that depict stained mitochondria with mitotracker green were analyzed using FIJI software. Each mitochondrion was measured for its length and width. Then, the length was divided by the width for each mitochondrion to get its mitochondrial aspect ratio. >200 mitochondria were measured per treatment.
smiles,measurement,setting,value
Cc1cccc(NC(C)c2cc(Cl)ccc2O)c1C (stereo not drawn) [MFI8],caspase 3/7 activation in combination with AMG-176,MOLM13 cells,sensitizes cells to caspase activation in response to BH3 mimetic (MCL-1 inhibitor) AMG-176 treatment
same,metabolites of the TCA cycle,MEFs [1],"markedly reduced several metabolites such as malate, oxaloacetate, and α-ketoglutarate"
same,total NAD+/NADH ratio,MEFs [1],decreased the total NAD^+/NADH ratio
same,cellular viability,cells [2],neither MFI8 nor MASM7 decreased cellular viability
same,γH2AX foci / DNA damage,MEFs [3]; MFN1/MFN2 DKO MEFs,not in MFN1/MFN2 DKO MEFs
same,γH2AX foci / DNA damage,"MEFs [3]; WT MEFs, 6 h",increased γH2AX foci
same,sensitization to BV6-induced cell death,cells [4]; combined with BV6,potentiated the capacity of BV6 to induce cell death
same,sensitization to BV6-induced cell death,cells [4]; deletion of MFN1/2 and APAF,abolished the capacity of MFI8 to sensitize cells to BV6 treatment
same,percentage of dead cells,cells [4]; upon caspase 3/7 activation,did not increase the percentage of dead cells
same,respiration and mitochondrial ATP production,MEFs [5],reduced respiration and mitochondrial ATP production
same,mitochondrial aspect ratio,MEFs [6]; MFN1/MFN2 DKO MEFs reconstituted with WT MFN2,significantly decreased mitochondrial aspect ratio
same,pIC50,"MEFs [6]; Mus musculus, 6 h, read-out: IC50 (decrease of Mito AR)",5.39
same,mitochondrial aspect ratio,MEFs [6]; co-treated with MASM7 in MEFs,reduced mitochondrial aspect ratio
same,mitochondrial aspect ratio,MEFs [6]; double knockout of MFN1 and MFN2,completely abolished MFI8 from reducing mitochondrial aspect ratio
same,mitochondrial aspect ratio,MEFs [6]; either MFN1 or MFN2 knocked out,still capable of reducing mitochondrial aspect ratio
